# Assay results reported in PMC10584170, “Machine learning-based phenotypic imaging to characterise the targetable biology of Plasmodium falciparum male gametocytes for the development of transmission-blocking antimalarials” (PLOS Pathogens, 2023).
# Where two headings read alike, the source gives them in different places.
# How the values were obtained:
# [1] = tested on: P. falciparum male gametocytes; assay: P. falciparum Dual Gamete Formation Assay (PfDGFA), male readout (exflagellation); format: cell-based, Plasmodium falciparum NF54; details: for inhibition at 2 µM: 24h preincubation with gametocytes; for Activity: hit = >50% inhibition in male or female readout in at least 3 replicates, 0 = no class assigned
# Procedure, shortened: (§1)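 Mature NF54 gametocytes (day 14) were incubated with compound for 24 h at 37°C under 1% O2/3% CO2, then triggered with xanthurenic acid ookinete medium plus Cy3-anti-Pfs25. Exflagellation was imaged by brightfield; after a further 24 h at 28°C, Pfs25-positive female gametes were imaged by fluorescence and counted by automated image analysis.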
# [2] = tested on: P. falciparum female gametocytes; assay: P. falciparum Dual Gamete Formation Assay (PfDGFA), female readout (Pfs25-positive female gametes); format: cell-based, Plasmodium falciparum NF54; details: for inhibition at 2 µM: 24h preincubation with gametocytes
# Procedure, shortened: as §1
# [3] = 2µM, 24h preincubation with gametocytes prior to induction of gametogenesis, average of replicates
# [4] = 2µM, 24h preincubation with gametocytes prior to induction of gametogenesis, replicate R1
# [5] = 2µM, 24h preincubation with gametocytes prior to induction of gametogenesis, replicate R3
# [6] = 2µM, 24h preincubation with gametocytes prior to induction of gametogenesis, replicate R4
# [7] = 2µM, 24h preincubation, hits selected on >50% inhibition in the male readout across replicates
# [8] = PfDGFA at 2µM, 24h preincubation
# [9] = 2µM, 24h preincubation, hits selected on >50% inhibition in the female readout across replicates
# [10] = 2µM, 24h preincubation, number of replicates with >50% inhibition in the male readout
# [11] = 2µM, 24h preincubation, number of replicates with >50% inhibition in the female readout
# [12] = PfDGFA at 2µM, 24h preincubation with gametocytes prior to induction of gametogenesis, replicate R1
# [13] = PfDGFA at 2µM, 24h preincubation with gametocytes prior to induction of gametogenesis, replicate R3
# [14] = PfDGFA at 2µM, 24h preincubation with gametocytes prior to induction of gametogenesis, replicate R4
# [15] = PfDGFA at 2µM, 24h preincubation, average of replicates
compound,measurement,setting,value
CC(C)(CN)c1nc(-c2ccc(Br)c(O)c2)c(-c2ccncc2)[nH]1.Cl [TCMDC-140680],Selectivity Ratio M,[1]; HepG2 Tox50 versus male IC50,67.46
same,inhibition at 2 µM,"[1]; Plasmodium falciparum, PfDGFA at 2µM, average of replicates, read-out: Average inhibition male (%)",80.7%
same,inhibition at 2 µM,"[1]; Plasmodium falciparum, PfDGFA at 2µM, replicate R1, read-out: % inhibition male (individual replicates) R1",55.5%
same,inhibition at 2 µM,"[1]; Plasmodium falciparum, PfDGFA at 2µM, replicate R2, read-out: % inhibition male (individual replicates) R2",95.4%
same,inhibition at 2 µM,"[1]; Plasmodium falciparum, PfDGFA at 2µM, replicate R3, read-out: % inhibition male (individual replicates) R3",94%
same,inhibition at 2 µM,"[1]; Plasmodium falciparum, PfDGFA at 2µM, replicate R4, read-out: % inhibition male (individual replicates) R4",77.9%
same,IC50,"[1]; Plasmodium falciparum, PfDGFA, 24 h incubation with gametocytes before induction, exflagellation readout, read-out: Male IC50",1480 nM
same,HitlevelM,"[1]; number of replicates with >50% inhibition in the male readout, 2µM",4
same,Selectivity ratio F,[2]; HepG2 Tox50 versus female IC50,175.05
same,inhibition at 2 µM,"[2]; Plasmodium falciparum, PfDGFA at 2µM, average of replicates, read-out: Average inhibition female (%)",96%
same,inhibition at 2 µM,"[2]; Plasmodium falciparum, PfDGFA at 2µM, replicate R1, read-out: % inhibition female (individual replicates) R1",91.3%
same,inhibition at 2 µM,"[2]; Plasmodium falciparum, PfDGFA at 2µM, replicate R2, read-out: % inhibition female (individual replicates) R2",95.4%
same,inhibition at 2 µM,"[2]; Plasmodium falciparum, PfDGFA at 2µM, replicate R3, read-out: % inhibition female (individual replicates) R3",104%
same,inhibition at 2 µM,"[2]; Plasmodium falciparum, PfDGFA at 2µM, replicate R4, read-out: % inhibition female (individual replicates) R4",93%
same,IC50,"[2]; Plasmodium falciparum, PfDGFA, 24 h incubation with gametocytes before induction, female gamete readout, read-out: Female IC50",570 nM
same,HitlevelF,"[2]; number of replicates with >50% inhibition in the female readout, 2µM",4
CN1CCC(N2CCN(CCOc3cc(NC(=O)/C=C/c4ccccc4Cl)ccc3Br)CC2)CC1.O=C(O)C(=O)O [TCMDC-140962],Average inhibition male (%),[1]; [3],15.3%
same,% inhibition male (individual replicates) R1,[1]; [4],25.8%
same,% inhibition male (individual replicates) R3,[1]; [5],-8.5%
same,% inhibition male (individual replicates) R4,[1]; [6],17.6%
same,HitlevelM,[1]; [7],0
same,Activity,[1]; [8],0
same,Average inhibition female (%),[2]; [3],8.6%
same,% inhibition female (individual replicates) R1,[2]; [4],14.8%
same,% inhibition female (individual replicates) R3,[2]; [5],-6.3%
same,% inhibition female (individual replicates) R4,[2]; [6],11.7%
same,HitlevelF,[2]; [9],0
COc1cc2c(cc1OCCN1CCC(N)CC1)N(C(=O)/C=C/c1ccccc1Cl)CC2.Cl [TCMDC-140969],Average inhibition male (%),[1]; [3],28.3%
same,% inhibition male (individual replicates) R1,[1]; [4],26.3%
same,% inhibition male (individual replicates) R3,[1]; [5],11.1%
same,% inhibition male (individual replicates) R4,[1]; [6],42.2%
same,HitlevelM,[1]; [7],0
same,Activity,[1]; [8],0
same,Average inhibition female (%),[2]; [3],11.8%
same,% inhibition female (individual replicates) R1,[2]; [4],7.5%
same,% inhibition female (individual replicates) R3,[2]; [5],2.9%
same,% inhibition female (individual replicates) R4,[2]; [6],33.3%
same,HitlevelF,[2]; [9],0
CC1(CCN2CCC(c3c[nH]c4cnccc34)CC2)CCCc2c(Br)cccc2C1=O.Cl (stereo not drawn) [TCMDC-141171],Average inhibition male (%),[1]; [3],55.1%
same,% inhibition male (individual replicates) R1,[1]; [4],49.5%
same,% inhibition male (individual replicates) R4,[1]; [6],49.8%
same,HitlevelM,[1]; [7],1
same,Activity,[1]; [8],0
same,Average inhibition female (%),[2]; [3],14.9%
same,% inhibition female (individual replicates) R1,[2]; [4],12.8%
same,% inhibition female (individual replicates) R3,[2]; [5],15.8%
same,% inhibition female (individual replicates) R4,[2]; [6],19.7%
same,HitlevelF,[2]; [9],0
CC1(CCCCN2CCC(c3c[nH]c4cnccc34)CC2)C(=O)Nc2cccc(Cl)c21 (stereo not drawn) [TCMDC-141177],Average inhibition male (%),[1]; [3],42.5%
same,% inhibition male (individual replicates) R1,[1]; [4],42.7%
same,% inhibition male (individual replicates) R3,[1]; [5],28.4%
same,% inhibition male (individual replicates) R4,[1]; [6],48.2%
same,HitlevelM,[1]; [10],1
same,Average inhibition female (%),[2]; [3],23.5%
same,% inhibition female (individual replicates) R1,[2]; [4],22.1%
same,% inhibition female (individual replicates) R3,[2]; [5],12.9%
same,% inhibition female (individual replicates) R4,[2]; [6],47.7%
same,HitlevelF,[2]; [11],0
O=C(O)C(F)(F)F.O=[N+]([O-])c1cccc(CNCC2CCN(Cc3ccc(-c4ccccc4)cc3)CC2)c1 [TCMDC-141208],Average inhibition male (%),[1]; [3],36.0%
same,% inhibition male (individual replicates) R1,[1]; [4],32.1%
same,% inhibition male (individual replicates) R3,[1]; [5],8.2%
same,% inhibition male (individual replicates) R4,[1]; [6],53.6%
same,HitlevelM,[1]; [7],2
same,Activity,[1]; [8],0
same,Average inhibition female (%),[2]; [3],6.3%
same,% inhibition female (individual replicates) R1,[2]; [4],-1.5%
same,% inhibition female (individual replicates) R3,[2]; [5],6.7%
same,% inhibition female (individual replicates) R4,[2]; [6],13.0%
same,HitlevelF,[2]; [9],0
Cc1cc(F)ccc1-c1nc(Nc2ccncc2)c2ccn(C)c2n1 [TCMDC-141231],% inhibition male (individual replicates) R1,[1]; [12],-14.5%
same,% inhibition male (individual replicates) R3,[1]; [13],-17.7%
same,% inhibition male (individual replicates) R4,[1]; [14],32.9%
same,Average inhibition male (%),[1]; [15],-2.0%
same,% inhibition female (individual replicates) R1,[2]; [12],10.5%
same,% inhibition female (individual replicates) R3,[2]; [13],-5.5%
same,% inhibition female (individual replicates) R4,[2]; [14],-9.9%
same,Average inhibition female (%),[2]; [15],-2.8%
CCCC(C)NC(=O)[C@H]1CNCCN1C(=O)CCCc1ccccc1.O=C(O)C(F)(F)F (stereo partly drawn) [TCMDC-141270],% inhibition male (individual replicates) R1,[1]; [12],-7.3%
same,% inhibition male (individual replicates) R3,[1]; [13],-0.8%
same,% inhibition male (individual replicates) R4,[1]; [14],2.9%
same,Average inhibition male (%),[1]; [15],-3.3%
same,% inhibition female (individual replicates) R1,[2]; [12],8.3%
same,% inhibition female (individual replicates) R3,[2]; [13],-18.4%
same,% inhibition female (individual replicates) R4,[2]; [14],-2.2%
same,Average inhibition female (%),[2]; [15],0.7%
ON=C1CCc2cc(-c3cc(-c4ccc(OC5CCNCC5)cc4)oc3-c3ccncc3)ccc21 [TCMDC-141381],% inhibition male (individual replicates) R1,[1]; [12],12.4%
same,% inhibition male (individual replicates) R3,[1]; [13],2.8%
same,% inhibition male (individual replicates) R4,[1]; [14],13.5%
same,Average inhibition male (%),[1]; [15],7.3%
same,% inhibition female (individual replicates) R1,[2]; [12],10.4%
same,% inhibition female (individual replicates) R3,[2]; [13],-25.1%
same,% inhibition female (individual replicates) R4,[2]; [14],18.2%
same,Average inhibition female (%),[2]; [15],2.6%
CN(C)CCN(Cc1ccc(-c2ccc(CNCCc3ccccc3)cc2)nc1)C(=O)CCC1CCCC1.O=C(O)C(F)(F)F [TCMDC-141402],Average inhibition male (%),[1]; [3],46.5%
same,% inhibition male (individual replicates) R1,[1]; [4],41.7%
same,% inhibition male (individual replicates) R3,[1]; [5],6.4%
same,% inhibition male (individual replicates) R4,[1]; [6],71.6%
same,HitlevelM,[1]; [7],2
same,Activity,[1]; [8],0
same,Average inhibition female (%),[2]; [3],13.9%
same,% inhibition female (individual replicates) R1,[2]; [4],22.3%
same,% inhibition female (individual replicates) R3,[2]; [5],7.4%
same,% inhibition female (individual replicates) R4,[2]; [6],7.2%
same,HitlevelF,[2]; [9],0
O=C(C1CC1c1ccccc1)N(Cc1ccc(-c2ccc(CNCCc3ccccc3)cc2)cc1)C1CCNCC1.O=C(O)C(F)(F)F (stereo not drawn) [TCMDC-141443],Average inhibition male (%),[1]; [3],40.0%
same,% inhibition male (individual replicates) R1,[1]; [4],61.6%
same,% inhibition male (individual replicates) R3,[1]; [5],28.4%
same,% inhibition male (individual replicates) R4,[1]; [6],57.9%
same,HitlevelM,[1]; [10],2
same,Average inhibition female (%),[2]; [3],24.9%
same,% inhibition female (individual replicates) R1,[2]; [4],19.9%
same,% inhibition female (individual replicates) R3,[2]; [5],29.6%
same,% inhibition female (individual replicates) R4,[2]; [6],18.3%
same,HitlevelF,[2]; [11],0
